# Structures can show the parent of a compound that is named as a salt. Where two headings read alike, the source gives them in different places.
# Assays:
# [1] = Reduction of methanethiol (MeSH) in headspace, phosphate buffer pH 7, GC; settings: for reactivity towards MeSH / ability to bind MeSH (in words): aqueous environment; for % reduction of MeSH in the headspace: MeSH 100 μM, phosphate buffer pH 7, 1 h
# Protocol: (§1) The compounds listed in Table 1 are dissolved to a final concentration of 100 μM, 200 μM and 500 μM in 1 ml of phosphate buffer at pH 7 in a closed GC-headspace vial. MeSH is added to a final concentration of 100 μM and the mixture is equilibrated for 1 h. Samples are heated to 75° C. and 1 ml of the headspace above the reaction mixture is injected onto a column suitable for separation of sulphur compounds (SPW1-sulfur, Supelco). The temperature program is set to 1 min initial temperature at 50° C., heating at a rate of 10° C./min to 100° C. and further heating at 20° C./min to 200° C. The headspace level of MeSH is compared to a blank sample, i.e. a sample without the active compound.
# [2] = Reduction of methanethiol (MeSH) in saliva, headspace GC; settings: compound 500 μM, MeSH 200 μM
# Protocol: as §1
# The compounds given in Table 3 are dissolved in GC-headspace vials in saliva donations pooled form four donors at a concentration of 500 μM. After a conditioning period of 1 and 2.5 h respectively, MeSH is added at a concentration of 200 μM, and 1 hour later MeSH level in the headspace is determined as described in Example 8.
# [3] = Reduction of allyl mercaptan, monobromobimane fluorescence; settings: 200 μM allyl mercaptan-solution, pH 7, 15 min
# Protocol: The compounds given in Table 2 are dissolved in DMSO to a final concentration of 100 mM and serially diluted in the same solvent. Aliquots of the solutions of different active compounds (2.5 μl) are distributed to individual wells of a microtiter plate. 100 μl of a 200 μM allyl mercaptan-solution (in 50 mM phosphate buffer, pH 7) are added to each well and the plates are immediately sealed. After 15 min of incubation, the unreacted allyl mercaptan is derivatised by adding to each well of the microtiter plate 100 μl of a monobromobimane (obtained from Fluka, Buchs, Switzerland) stock solution (0.5 mM in 1 M NaCO3, pH 8.8). After 10 min the fluorescence in the wells of the microtiter plates is measured on a Flex-station (Molecular devices, Sunnyvale, Calif., USA) with an excitation wavelength of 385 nm and an emission wavelength of 480 nm. After the fluorescence determination, from all the wells the blank value containing only buffer and DMSO is subtracted. The fluorescence of control wells with allyl mercaptan and DMSO only is then compared to the fluorescence in wells containing potential allyl mercaptan trapping agents (compound 1 to 5) to calculate the inhibition in percent.
# [4] = 500 μM, pH 7
# Protocol: Samples of 0.50 ml are withdrawn at the indicated time intervals and extracted with MTBE (0.50 ml). The amount of released ethyl vanillin is determined by quantitative GC-analysis.
# [5] = after 2½ h conditioning in pooled saliva
# [6] = after 1 h conditioning in pooled saliva
SMILES,reactivity towards MeSH / ability to bind MeSH (in words) [1],% reduction of MeSH in the headspace ([1]; compound 100 μM),% reduction of MeSH in the headspace ([1]; compound 200 μM),% reduction of MeSH in the headspace ([1]; compound 500 μM),"Reduction of MeSH (%) [2, 5]","Reduction of MeSH (%) [2, 6]",% reduction of allyl mercaptan ([3]; test concentration 31.25 μM),% reduction of allyl mercaptan ([3]; test concentration 62.5 μM),% reduction of allyl mercaptan ([3]; test concentration 125 μM),% reduction of allyl mercaptan ([3]; test concentration 250 μM),% reduction of allyl mercaptan ([3]; test concentration 500 μM),% reduction of allyl mercaptan ([3]; test concentration 1000 μM),% of theory (released ethyl vanillin) ([4]; 30 min),conc. of released ethy vanillin ([4]; 30 min),% of theory (released ethyl vanillin) ([4]; 60 min),conc. of released ethy vanillin ([4]; 60 min),% of theory (released ethyl vanillin) ([4]; 120 min),conc. of released ethy vanillin ([4]; 120 min)
"CC1CCC(C(C)C)C(OC(=O)/C=C/C(=O)O)C1 (stereo not shown) [B, reference compound]",low reactivity,11.9%,1.7%,0%,–,–,–,–,–,–,–,–,–,–,–,–,–,–
"CC1CCC(C(C)C)C(OC(=O)/C=C/C(=O)OCC(O)CO)C1 (stereo not shown) [Compound 1, 2,3-Dihydroxypropyl 2-isopropyl-5-methylcyclohexyl fumarate]",–,81.5%,73.7%,>90%,40.5%,72.7%,0.1%,9.9%,22.5%,43.2%,68.8%,86.0%,–,–,–,–,–,–
"CCOC(=O)/C=C/C(=O)Oc1c(C)occc1=O [Compound 2, Ethyl 2-methyl-4-oxo-4H-pyran-3-yl fumarate]",–,>92%,>92%,>90%,32.5%,75.9%,11.1%,31.9%,65.3%,98.4%,100.0%,100.0%,–,–,–,–,–,–
"CCOC(=O)/C=C/C(=O)Oc1ccc(C=O)cc1OCC [Compound 3, 2-Ethoxy-4-formylphenyl ethyl fumarate]",–,>90%,>92%,>90%,73.3%,36.2%,12.8%,32.7%,74.5%,99.8%,100.0%,100.0%,38%,192 µM,47%,235 µM,62%,310 µM
"CCOC(=O)/C=C/C(=O)Oc1ccccc1C(=O)OC [Compound 4, Methyl 2-((E)-3-(ethoxycarbonyl)acryloyloxy)benzoate]",–,>90%,>92%,>90%,74.3%,28.1%,14.4%,32.3%,67.6%,95.3%,99.8%,100.0%,–,–,–,–,–,–
"CC1CCC(C(C)C)C(OC(=O)/C=C/C(=O)OCC(O)C(O)C(O)C(O)CO)C1 (stereo not shown) [Compound 5, 2,3,4,5,6-Pentahydroxyhexyl 2-isopropyl-5-methylcyclohexyl fumarate]",–,71.6%,–,>90%,75.1%,48.2%,1.0%,8.1%,19.3%,38.4%,64.4%,89.3%,–,–,–,–,–,–
"CCOC(=O)/C=C/C(=O)OCC=Cc1ccccc1 [Compound 6, Cinnamyl Ethyl Fumarate]",–,45.8%,–,85%,–,–,–,–,–,–,–,–,–,–,–,–,–,–
"CC/C=C\CCOC(=O)/C=C/C(=O)OCC [Compound 7, Ethyl (Z)-hex-3-enyl fumarate]",–,33%,39.2%,54.1%,–,–,–,–,–,–,–,–,–,–,–,–,–,–
"CCCCCCOC(=O)/C=C/C(=O)OCCCCCC [Dihexyl fumarate (A), Dihexyl fumarate, reference compound]",very low reactivity,4.3%,1.9%,10.9%,–,–,–,–,–,–,–,–,–,–,–,–,–,–

# Source: US20090047223A1, “Improvements in or Related to Organic Compoounds” (GIVAUDAN SA, priority 2005, published 2009)
